Each structure is given as a SMILES string.

The target in data set [1] is T1, TSHR (Homo sapiens, UniProt P16473).
T1 construct: expressed in transfected cells
Nature of the data set: Basal (agonist-independent) cAMP production in HEK-EM 293 cells stably expressing TSHRs. Format: cell-based. The following applies: for classification from dose response of basal cAMP (inverse agonist activity): 60 min in HBSS + 1 mM IBMX, % of basal activity. Here is the method:
(§1) After 60 min, the cells were lysed and cAMP levels were measured by ELISA.
(§2) Non-treated cells, incubated with IBMX only, were used as control (basal activity). After 60 min, the cells were lysed and cAMP levels were measured by ELISA. […] After 40 min, the incubation was stopped and total cAMP levels were measured by ELISA.
HEK-EM 293 cells stably expressing TSHRs were exposed to the noted concentrations of the small molecule ligands for 60 min in HBSS+1 mM IBMX. Non-treated cells, incubated with IBMX only, were used as control (basal activity). After 60 min, the cells were lysed and cAMP levels were measured by ELISA.
(§3) Determination of cAMP production.
On the technique in general: cAMP levels reflect the balance of adenylyl cyclase and phosphodiesterase activity.

Data set [2] deals with T1, TSHR. Nature of the data set: TSH-stimulated cAMP production in HEK-EM 293 cells stably expressing TSHRs. Format: cell-based. The following applies: for classification from dose response of TSH-stimulated cAMP (FIG. 11): 1 mU/ml hTSH (EC50 dose). Here is the method:
as §1, §2
After 40 min, the incubation was stopped and total cAMP levels were measured by ELISA. The data are from 2 experiments with duplicate samples and are presented as mean±SE.
as §3

In the next data set the test system is beta-adrenergic receptor. Nature of the data set: Isoproterenol-stimulated cAMP accumulation in human thyrocytes. The format is cell-based. From the text:
(§4) This was important because it has been shown that TSHR mutants signal differently in different cell types. […] TSH and the small molecule ligand agonist that were identified previously specifically increase expression of several genes in thyrocytes (J Biomol Screen 13, 120, 2008; Proc Nat Acad Sci 106, 12471, 2009).

In data set [3] the test system is 7TMR for vasoactive intestinal peptide. The data set is described as follows: Vasoactive intestinal peptide-stimulated cAMP accumulation in human thyrocytes. The format is cell-based.
Text: as §4

Another data set concerns adenylyl cyclase. The data set is described as follows: Forskolin-stimulated cAMP accumulation in human thyrocytes. Format: cell-based.
Text: as §4

In data set [4] the test system is TPO, TSHR, TG, DIO2 and NIS mRNAs. Nature of the data set: Basal expression of thyroid gene mRNAs in primary cultures of human thyrocytes (quantitative RT-PCR). The following applies: 30 μM, 48 hr, IBMX, no agonist. The format is cell-based. The procedure:
FIG. 4B) Thyrocytes were incubated in media containing 2% fetal bovine serum and 1 mM IBMX without or with 30 μM 1 as described in Methods. After 48 h, the cells were lysed and the levels of the mRNAs were measured and normalized to GAPDH mRNA. The mRNA levels are presented as fold stimulation over control. The data are from three independent experiments with duplicate samples are shown.
Culture of primary human thyrocytes.
(§5) Quantitative RT-PCR. mRNA levels were measured using primers and probes were from Applied Biosystems. Quantitative RT-PCR results were normalized to GAPDH to correct for differences in RNA input.

Data set [5] concerns the target T1, TSHR. The data set is described as follows: 125I-TSH binding to TSHRs on the surface of HEK-EM 293 cells. The following applies: HEK-EM 293 / HEKTSHR cells. Here is the method:
HEK-EM293 cells stably expressing TSHRs were seeded into 24-well plates and grown to near confluency. Cell surface binding was measured by incubation in 0.25 ml binding buffer (HBSS containing 2.5% milk powder and 0.2% BSA) containing 60,000 cpm bovine ^125I-TSH without or with xx μM 1 for 2 hr at RT; nonspecific binding was measured in the presence of 1.8 μM unlabeled bovine TSH. Cells were washed 3 times with 0.5 ml ice cold HBSS and lysed with 0.5 ml 0.4 N NaOH, and the cell-associated radioactivity counted in a gamma counter.

For data set [6], the target named is T1, TSHR. Nature of the data set: Graves' disease sera-stimulated cAMP production in HEKTSHR cells. Format: cell-based. The following applies: 1:30 dilutions of thirty GD sera. Here is the method:
FIG. 13A. […] After an additional 40 min, the incubation was stopped and total cAMP levels were measured by ELISA. The data are from one experiment with triplicate samples and are representative of 3 experiments. The effects of compound S2-6 were significant by paired t-test (P<0.01).
FIG. 13B. HEKTSHR cells were incubated without (Control) or with 30 μM compound S2-6 for 20 min and then 1 mM IBMX and 1:30 dilutions of thirty GD sera were added. After an additional 40 min, the incubation was stopped and total cAMP levels were measured by ELISA. […] The data are representative of 2 experiments performed in duplicate.

Another data set concerns TPO mRNA. The data set is described as follows: Basal and TSAb-induced up-regulation of TPO mRNA in primary cultures of human thyrocytes. Format: cell-based. The following applies: 30 μM, 1:10 dilutions of GD sera, 48 hr. The procedure: Thyrocytes were incubated in DMEM containing 2% fetal bovine serum without (Control) or with 30 μM compound S2-6 without (basal) or with 1:10 dilutions of GD sera at 37 C. After 48 hr, the buffers were aspirated, the cells were lysed and the levels of TPO mRNA were measured and normalized to GAPDH mRNA. The mRNA levels are presented as fold of basal levels (Control). The data from 2 independent experiments with duplicate samples are shown.
as §5

Data set [7] has as its target T2, TSHRs on retro-orbital fibroblasts (Homo sapiens, UniProt P16473).
T2 construct: endogenous in cells; host or cells: cultured retro-orbital fibroblasts from Graves' orbitopathy patients
The data set is described as follows: TSHR signaling in retro-orbital fibroblasts from patients with Graves' orbitopathy. The following applies: preliminary experiment; fibroblasts in cell culture. The format is cell-based. From the text: In a preliminary experiment, it has been shown that compound S2-6 inhibits activation of TSHRs on retro-orbital fibroblasts acquired from patients with Graves' orbitopathy. Retro-orbital fibroblasts were obtained from patients undergoing decompression eye surgery for Graves' orbitopathy and were adapted to cell culture.

The target of data set [8] is T1, TSHR. The following applies: cited from earlier work.
For data set [9] the following is noted: cited from earlier work.

T1 sequence (P16473 21-764): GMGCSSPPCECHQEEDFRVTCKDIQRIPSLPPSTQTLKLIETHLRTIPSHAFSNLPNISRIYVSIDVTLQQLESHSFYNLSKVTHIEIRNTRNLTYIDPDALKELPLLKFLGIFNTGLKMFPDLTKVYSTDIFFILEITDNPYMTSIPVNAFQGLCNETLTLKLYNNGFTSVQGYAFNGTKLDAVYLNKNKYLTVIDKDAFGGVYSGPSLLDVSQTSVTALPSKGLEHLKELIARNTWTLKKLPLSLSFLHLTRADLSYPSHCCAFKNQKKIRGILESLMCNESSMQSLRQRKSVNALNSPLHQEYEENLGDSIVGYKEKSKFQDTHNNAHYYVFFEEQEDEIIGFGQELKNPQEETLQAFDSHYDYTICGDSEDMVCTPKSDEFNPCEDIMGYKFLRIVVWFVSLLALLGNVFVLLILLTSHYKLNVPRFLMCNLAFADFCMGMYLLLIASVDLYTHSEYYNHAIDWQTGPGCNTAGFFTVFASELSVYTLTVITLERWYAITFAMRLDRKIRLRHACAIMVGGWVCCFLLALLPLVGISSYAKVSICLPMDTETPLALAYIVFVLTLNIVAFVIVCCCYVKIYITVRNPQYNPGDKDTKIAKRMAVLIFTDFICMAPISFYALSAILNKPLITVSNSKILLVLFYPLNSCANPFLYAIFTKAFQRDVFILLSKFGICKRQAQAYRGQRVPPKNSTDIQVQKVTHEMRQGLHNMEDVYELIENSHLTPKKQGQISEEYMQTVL
T2 sequence (P16473 21-764): as above

Take `COc1ccc(C2Nc3ccccc3C(=O)N2Cc2ccco2)cc1CSc1c(C)cccc1C` (centres unmarked) [Compound S2-8, 2-(3-((2,6-Dimethylphenylthio)methyl)-4-methoxyphenyl)-3-(furan-2-ylmethyl)-2,3-dihydroquinazolin-4(1H)-one]: the “classification from dose response of basal cAMP (inverse agonist activity)” value (“classification … (inverse agonist activity)” below) on TSHR [1] is “neutral antagonist”. The “classification from dose response of TSH-stimulated cAMP (FIG. 11)” value (“classification from dose response … (FIG. 11)” for short) at TSHR [2] is reported as “neutral antagonists”.

With `COc1ccc(C2Nc3ccccc3C(=O)N2Cc2ccco2)cc1COc1c(C)cccc1C` (centres unmarked) [Compound 1, 2-(3-((2,6-dimethylphenoxy)methyl)-4-methoxyphenyl)-3-(furan-2-ylmethyl)-2,3-dihydroquinazolin-4(1H)-one], the “cAMP accumulation stimulated by isoproterenol” value in the data set on beta-adrenergic receptor was “did not decrease”. The “cAMP accumulation stimulated by vasoactive intestinal peptide” value in data set [3] is “did not decrease”. Besides, the “cAMP accumulation stimulated by forskolin” value with adenylyl cyclase was “did not decrease”. Moreover, in data set [4], the “DIO2 mRNA level” value was “decreased”, the “NIS mRNA level” value was “decreased”, the “TG mRNA level” value was “decreased” and the “TPO mRNA level” value is recorded as “decreased”. In data set [4], the “TSHR mRNA level” value is reported as “decreased”.

On to `COc1ccc(C2Nc3ccccc3C(=O)N2Cc2ccco2)cc1COc1c(C)cc(NC(C)=O)cc1C` (centres unmarked) [Compound S2-7, N-(4-(5-(3-(Furan-2-ylmethyl)-4-oxo-1,2,3,4-tetrahydroquinazolin-2-yl)-2-methoxybenzyloxy)-3,5-dimethylphenyl)acetamide], for which the “classification … (inverse agonist activity)” value at TSHR [1] is reported as “inverse agonists”. Also, the “classification from dose response … (FIG. 11)” value at TSHR [2] is “neutral antagonists”.

Turning to `COCCN1C(=O)c2ccccc2NC1c1ccc(OC)c(COc2c(C)cc(NC(C)=O)cc2C)c1` (centres unmarked) [Compound S2-29, N-(4-(2-methoxy-5-(3-(2-methoxyethyl)-4-oxo-1,2,3,4-tetrahydroquinazolin-2-yl)benzyloxy)-3,5-dimethylphenyl)acetamide], the “classification from dose response … (FIG. 11)” value on TSHR [2] is “neutral antagonists”.

`COc1ccc(C2Nc3ccccc3C(=O)N2Cc2cccnc2)cc1COc1c(C)cccc1C` (centres unmarked) [Compound S2-6, 2-(3-((2,6-dimethylphenoxy)methyl)-4-methoxyphenyl)-3-(pyridin-3-ylmethyl)-2,3-dihydroquinazolin-4-one]: the “classification … (inverse agonist activity)” value on TSHR [1] is listed as “inverse agonists”. Further, the inhibition at 30 µM at TSHR [1] (HEK-EM293, read-out: inhibition of basal cAMP production by TSHRs at 30 μM) came to 53%; on TSHR [2] (HEK-EM293, read-out: inhibition of cAMP production stimulated by an EC50 concentration of TSH at 30 μM), 53%; on TSHR [6] it was 39 ± 2.6%. The “classification from dose response … (FIG. 11)” value at TSHR [2] was “neutral antagonists”. Further, the “mode of antagonism of TSH signaling” value on TSHR [2] (varying TSH concentrations (Schild analysis for compound 1)) is “competitive”. In addition, on TSHR [5], the “effect on 125I-TSH binding to TSHRs” value is “no effect”. Further, the “inhibition of basal and GD sera TSAb up-regulation of thyroperoxidase mRNA levels” value in the data set on TPO mRNA was 65±2.0%. Also, the “inhibition of basal signaling in retro-orbital fibroblasts” value in data set [7] is on record as 75%. In addition, the “inhibition of thyroid-stimulating antibody-stimulated signaling in retro-orbital fibroblasts” value in data set [7] worked out at 85%. Besides, the “potency and efficacy as TSHR antagonist relative to compound 1” value on TSHR [8] is “as potent and effective as compound 1”. Further, the “solubility relative to compound 1” value in [9] is listed as “increased solubility”.

With `COc1ccc(C2Nc3ccccc3C(=O)N2Cc2cccnc2)cc1COc1c(C)cc(NC(C)=O)cc1C` (centres unmarked) [Compound S2-17, N-(4-(2-Methoxy-5-(4-oxo-3-(pyridin-3-ylmethyl)-1,2,3,4-tetrahydroquinazolin-2-yl)benzyloxy)-3,5-dimethylphenyl)acetamide], the “classification from dose response … (FIG. 11)” value on TSHR [2] is “neutral antagonists”.

The values are drawn from patent US9206154B2 (The United States of America, as represented by the …, priority 2010, dated 2015).
